Experimental data from ChEMBL document CHEMBL5543121, “Drug Repurposing of ACT001 to Discover Novel Promising Sulfide Prodrugs with Improved Safety and Potent Activity for Neutrophil-Mediated Antifungal Immunotherapy” (J Med Chem, 2024).
Activity calls are given as the source filed them. The calls are words filed in the database; no cut-off is given here.

Key:
[1] = Acute toxicity in C57BL/6 mouse assessed as change in heart weight at 500 mg/kg, po administered as single dose and measured after 14 days; assay type: organism-based; conditions: in vivo, 336 h, time 14 day
[2] = test system: Neutrophil; assay: Induction of apoptosis in mouse neutrophils assessed as late apoptotic cells at 20 uM incubated for 16 hrs by Annexin V-FITC/PI staining based flow cytometry analysis (reference value: 24.4%); assay type: toxicity, cell-based
[3] = Half life in male Sprague-Dawley rat at 2 mg/kg, iv by LC-MS/MS analysis; assay type: ADME, organism-based; conditions: in vivo
[4] = test system: Candida albicans; assay: Induction of neutrophil-mediated antifungal immunity against Candida albicans SC5314 infected in mouse assessed as reduction in fungal clusters in kidney at 50 to 100 mg/kg, po administered once a day for 3 days by PAS staining based analysis; assay type: functional, organism-based; conditions: dose 50-100 mg/kg, time 3.0 day
[5] = Subacute toxicity in C57BL/6 mouse assessed as histopathological changes in kidney at 100 mg/kg, po administered daily for 14 days; assay type: organism-based; conditions: in vivo, 336 h, time 14 day
[6] = Inhibition of fungal curdlan induced PD-L1 expression in mouse neutrophils assessed as reduction in PD-L1 positive Ly6G positive neutrophils incubated for 16 hrs by flow cytometry analysis; assay type: functional, cell-based; conditions: Neutrophil
[7] = MRT (0 to t) in male Sprague-Dawley rat at 2 mg/kg, iv by LC-MS/MS analysis; assay type: ADME, organism-based; conditions: in vivo
[8] = test system: Neutrophil; assay: Induction of apoptosis in mouse neutrophils assessed as dead cells at 20 uM incubated for 16 hrs by Annexin V-FITC/PI staining based flow cytometry analysis (reference value: 2.04%); assay type: toxicity, cell-based
[9] = Acute toxicity in C57BL/6 mouse assessed as histopathological changes in heart at 500 mg/kg, po administered as single dose and measured after 14 days; assay type: organism-based; conditions: in vivo, 336 h, time 14 day
[10] = molecular target: Signal transducer and activator of transcription 3 (Mus musculus) (UniProt P42227); assay: Inhibition of biotinylated ACT001 probe binding to STAT3 in mouse bone marrow neutrophils at 100 uM by pulldown based Western blot analysis; assay type: cell-based; conditions: Neutrophil
[11] = Subacute toxicity in C57BL/6 mouse assessed as signs of morbidity at 100 mg/kg, po administered daily for 14 days and measured every day; assay type: organism-based; conditions: in vivo, 336 h, time 14 day
[12] = Acute toxicity in C57BL/6 mouse assessed as histopathological changes in lung at 500 mg/kg, po administered as single dose and measured after 14 days; assay type: organism-based; conditions: in vivo, 336 h, time 14 day
[13] = test system: Candida albicans; assay: Induction of neutrophil-mediated antifungal immunity against Candida albicans SC5314 infected in mouse assessed as reduction in fungal burden in kidneys at 50 to 100 mg/kg, po administered once a day for 3 days; assay type: functional, organism-based; conditions: dose 50-100 mg/kg, time 3.0 day
[14] = Therapeutic index, ratio of IC50 for cytotoxicity against mouse neutrophils to IC50 for inhibition of fungal curdlan induced PD-L1 expression in mouse neutrophils; assay type: toxicity; conditions: read-out: Ratio IC50
[15] = test system: Candida albicans; assay: Induction of neutrophil-mediated antifungal immunity against Candida albicans SC5314 infected in mouse assessed as reduction in PD-L1 positive Ly6G positive neutrophils in kidney at 50 to 100 mg/kg, po administered once a day for 3 days by flow cytometry analysis; assay type: functional, organism-based; conditions: dose 50-100 mg/kg, time 3.0 day
[16] = Cytotoxicity against mouse neutrophils assessed as reduction in cell viability incubated for 16 hrs by flow cytometry analysis; assay type: toxicity, cell-based, Neutrophil
[17] = Subacute toxicity in C57BL/6 mouse assessed as histopathological changes in liver at 100 mg/kg, po administered daily for 14 days; assay type: organism-based; conditions: in vivo, 336 h, time 14 day
[18] = Subacute toxicity in C57BL/6 mouse assessed as effect on ALT level in serum at 100 mg/kg, po administered daily for 14 days and measured every day; assay type: organism-based; conditions: in vivo, 336 h, time 14 day
[19] = Acute toxicity in C57BL/6 mouse assessed as animal death at 500 mg/kg, po administered as single dose and measured every day for 14 days; assay type: organism-based; conditions: in vivo, 336 h, time 14 day
[20] = test system: Candida albicans; assay: Induction of neutrophil-mediated antifungal immunity against Candida albicans SC5314 infected in mouse assessed as reduction in accumulation of Ly6G positive neutrophils in bone marrow at 50 to 100 mg/kg, po administered once a day for 3 days; assay type: functional, organism-based; conditions: dose 50-100 mg/kg, time 3.0 day
[21] = Oral bioavailability in male Sprague-Dawley rat at 10 mg/kg by LC-MS/MS analysis; assay type: ADME, organism-based; conditions: in vivo
[22] = Acute toxicity in C57BL/6 mouse assessed as effect on urea level in serum at 500 mg/kg, po administered as single dose and measured every day for 14 days; assay type: organism-based; conditions: in vivo, 336 h, time 14 day
[23] = test system: Candida albicans; assay: Induction of neutrophil-mediated antifungal immunity against Candida albicans SC5314 infected in cyclophosphamide-induced immunosuppressed C57BL/6 mouse at 50 to 100 mg/kg, po pretreated with CTX for 3 days followed by fungal infection and further administered with compound once a day for 3 days; assay type: functional, organism-based; conditions: dose 50-100 mg/kg, time 3.0 day
[24] = test system: Neutrophil; assay: Induction of apoptosis in mouse neutrophils assessed as early apoptotic cells at 20 uM incubated for 16 hrs by Annexin V-FITC/PI staining based flow cytometry analysis (reference value: 26.9%); assay type: toxicity, cell-based
[25] = test system: Neutrophil; assay: Induction of apoptosis in mouse neutrophils assessed as late apoptotic cells at 40 uM incubated for 16 hrs by Annexin V-FITC/PI staining based flow cytometry analysis (reference value: 24.4%); assay type: toxicity, cell-based
[26] = test system: Polymorphonuclear neutrophil; assay: Inhibition of fungal curdlan induced CXCL2 protein expression in mouse polymorphonuclear neutrophils at 40 uM incubated for 4 hrs by ELISA; assay type: functional, cell-based
[27] = Cytotoxicity against mouse neutrophils assessed as cell viability at 40 uM relative to control; assay type: toxicity, cell-based, Neutrophil; conditions: mouse neutrophils, read-out: Activity
[28] = Cmax in male Sprague-Dawley rat at 10 mg/kg, po by LC-MS/MS analysis; assay type: ADME, organism-based; conditions: in vivo
[29] = test system: Neutrophil; assay: Induction of apoptosis in mouse neutrophils assessed as early apoptotic cells at 40 uM incubated for 16 hrs by Annexin V-FITC/PI staining based flow cytometry analysis (reference value: 26.9%); assay type: toxicity, cell-based
[30] = Acute toxicity in C57BL/6 mouse assessed as change in lung weight at 500 mg/kg, po administered as single dose and measured after 14 days; assay type: organism-based; conditions: in vivo, 336 h, time 14 day
[31] = Induction of apoptosis in mouse neutrophils assessed as live cells at 40 uM incubated for 16 hrs by Annexin V-FITC/PI staining based flow cytometry analysis (reference value: 46.6%); assay type: toxicity, cell-based, Neutrophil; conditions: read-out: Activity
[32] = Acute toxicity in C57BL/6 mouse assessed as histopathological changes in spleen at 500 mg/kg, po administered as single dose and measured after 14 days; assay type: organism-based; conditions: in vivo, 336 h, time 14 day
[33] = Subacute toxicity in C57BL/6 mouse assessed as effect on creatinine level in serum at 100 mg/kg, po administered daily for 14 days and measured every day; assay type: organism-based; conditions: in vivo, 336 h, time 14 day
[34] = Subacute toxicity in C57BL/6 mouse assessed as animal death at 100 mg/kg, po administered daily for 14 days and measured every day; assay type: organism-based; conditions: in vivo, 336 h, time 14 day
[35] = Subacute toxicity in C57BL/6 mouse assessed as change in lung weight at 100 mg/kg, po administered daily for 14 days; assay type: organism-based; conditions: in vivo, 336 h, time 14 day
[36] = Subacute toxicity in C57BL/6 mouse assessed as change in kidney weight at 100 mg/kg, po administered daily for 14 days; assay type: organism-based; conditions: in vivo, 336 h, time 14 day
[37] = AUC (0 to infinity) in male Sprague-Dawley rat at 10 mg/kg, po by LC-MS/MS analysis; assay type: ADME, organism-based; conditions: in vivo
[38] = Permeability of compound in PBS/EtOH (70:30) buffer incubated for 12 hrs by PAMPA-BBB assay; assay type: ADME; conditions: read-out: permeability

Sequence of Signal transducer and activator of transcription 3 (Mus musculus) (P42227 whole entry): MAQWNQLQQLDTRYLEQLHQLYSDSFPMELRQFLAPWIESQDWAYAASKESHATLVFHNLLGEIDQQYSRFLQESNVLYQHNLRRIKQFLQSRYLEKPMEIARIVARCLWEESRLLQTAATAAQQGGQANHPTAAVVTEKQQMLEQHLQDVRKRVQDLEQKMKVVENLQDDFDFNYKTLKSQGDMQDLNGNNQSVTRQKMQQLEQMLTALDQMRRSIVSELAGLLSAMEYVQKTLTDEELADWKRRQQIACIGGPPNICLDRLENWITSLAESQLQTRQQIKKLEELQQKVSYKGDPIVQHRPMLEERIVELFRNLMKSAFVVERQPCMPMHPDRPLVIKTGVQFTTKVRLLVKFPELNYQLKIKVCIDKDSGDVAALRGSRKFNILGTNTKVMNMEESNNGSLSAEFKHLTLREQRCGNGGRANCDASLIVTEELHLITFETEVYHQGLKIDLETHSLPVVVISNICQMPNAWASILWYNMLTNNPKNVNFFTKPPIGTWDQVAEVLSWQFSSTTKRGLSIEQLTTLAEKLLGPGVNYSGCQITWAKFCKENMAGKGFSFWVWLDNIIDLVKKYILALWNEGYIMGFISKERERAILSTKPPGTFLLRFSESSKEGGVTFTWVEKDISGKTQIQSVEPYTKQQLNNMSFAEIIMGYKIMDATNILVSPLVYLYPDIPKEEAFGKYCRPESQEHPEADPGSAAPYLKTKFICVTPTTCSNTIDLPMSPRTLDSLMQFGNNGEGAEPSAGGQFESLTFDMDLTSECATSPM

## C[C@@]1(O)CC[C@]23O[C@@]2(C)CC[C@@H]2[C@H](OC(=O)[C@H]2CS(=O)(=O)c2c(Cl)cccc2Cl)[C@@H]13
[1]
  Activity: Non-Toxic
[2]
  Activity: 27%
[3]
  half-life: 10.2 min
[4]
  Activity: Active
[5]
  Activity: Non-Toxic
[6]
  IC50: 3.76 µM
[7]
  MRT last: 15 min
[8]
  Activity: 2.24%
[9]
  Activity: Non-Toxic
[10]
  inhibition: Active
[11]
  Activity: Non-Toxic
[12]
  Activity: Non-Toxic
[13]
  Activity: Active
[14]
  selectivity ratio: > 85.1
[15]
  Activity: Active
[16]
  IC50 at 16 h: > 320 µM
[17]
  Activity: Non-Toxic
[18]
  Activity: Non-Toxic
[19]
  Activity: Non-Toxic
[20]
  Activity: Active
[21]
  bioavailability: 45.1%
[22]
  Activity: Non-Toxic
[23]
  Activity: inactive
[24]
  Activity: 29.3%
[25]
  Activity: 30.8%
[26]
  inhibition: Active
[27]
  viability at 40 µM: 81.5%
[28]
  Cmax: 114 ng/mL
[29]
  Activity: 28.5%
[30]
  Activity: Non-Toxic
[31]
  viability at 16 h, 40 µM: 38%
[32]
  Activity: Non-Toxic
[33]
  Activity: Non-Toxic
[34]
  Activity: Non-Toxic
[35]
  Activity: Non-Toxic
[36]
  Activity: Non-Toxic
[37]
  AUC(0-inf): 182 ng·h/mL
[38]
  Papp at 12 h: 1.22 ×10⁻⁶ cm/s
